Results reported in patent US10167326B2, “Alpha-fetoprotein “ring and tail” peptides” (ALBANY MEDICAL COLLEGE, priority 2010, dated 2019).
“Also recorded” adds a separate entry of the source. Non-standard residues stand in square brackets, D forms with d. Residues, ends and D or L forms follow the SMILES beside them. Hyp = O=C(O)[C@@H]1C[C@@H](O)CN1

How the values were obtained:
[1] = system: estrogen receptor phosphorylation at serine-118; details: cited from earlier work
c-erb2 = details: after stimulation by E2 or EGF in MCF-7 cells; cited from earlier work
p53 = details: cited from earlier work
[2] = system: E2-stimulated immature mouse uterine growth; assay: immature mouse uterine growth assay (inhibition of E2-stimulated uterine growth); assay type: in vivo
Procedure: Four cyclic peptides of decreasing ring size (Table 1) were synthesized and were assessed for antiestrogenic activity using the immature mouse uterine assay. Negative control mice received saline alone. Positive control mice received E2 alone. AFPep was used as a positive control peptide and cyclic Scr was used as a peptide control. Mice were injected intraperitoneally (i.p.) with each of these peptides at a dose of 1 μg/mouse. One hour later mice received 0.5 ug 17β-estradiol (E2) i.p. Twenty-two hours later uteri were dissected, weighed, and normalized to body weight. The results are reported as mean±S.E (n=5) for four independent experiments.
(§1) A ‘tail’ was attached to a nine-amino acid ring and included 1 or 2 amino acids defined as hydrophilic or hydrophobic based on the nature of their side-chains. Tails comprising the following amino acid(s): serine (S), tyrosine (Y), […], glutamic acid (E), phenylalanine-serine (FS) and tyrosine-isoleucine (YI) represent hydrophilic tails and tails comprising the following amino acid(s), phenylalanine (F), isoleucine (I) and phenylalanine-isoleucine (FI) are hydrophobic tails. All peptides were administered at a dose of 1 μg/mouse intraperitoneally or 10 μg/mouse by oral gavage. Values are presented as mean±S.E. (n=5). In culture, T47D cells were treated with each peptide at a concentration of 1 μM. Values are presented as mean±S.E (n=6). […] Wilcoxon Rank Sum Test.
(§2) All peptides were administered at a dose of 1 μg/mouse intraperitoneally or 10 μg/mouse by oral gavage. Values are presented as mean±S.E (n=5). In culture, T47D cells were treated with each peptide at a concentration of 1 μM. Values are presented as mean±S.E (n=6). […] Wilcoxon Rank Sum Test.
To evaluate peptide-induced inhibition by the peptide of the present invention of estrogen-stimulated proliferation of normal tissue, the immature mouse uterine growth assay was utilized. Briefly, 13-15 day-old Swiss/Webster female mice, 6-8 g in body weight, were distributed into treatment groups of 5 mice per group so that each group contained animals of the same range of body weight. The peptide of the invention was injected i.p., s.c., or p.o. into the mice. One hour later, estradiol (E2) or vehicle control for E2 was injected i.p. Twenty-two hours after the second injection, uteri were harvested, trimmed free of mesenteries, and immediately weighed. The uterine weights were normalized to mouse body weights to compensate for differences in body weight among litters of the same age. Experiments employed a minimum of five mice per group and the mean normalized uterine weight±SE for each group was calculated. Percent growth inhibition in a test group was calculated from normalized uterine wet weights as described below.
The ability to inhibit E2-stimulated growth of normal mouse uterus was used as a screening assay for biological activity of AFPep analogs. In general, inhibitory activity ≥20% is considered to be biologically significant. Each analog's inhibitory effect on E2-stimulated growth was compared to AFPep (a positive control) and to PGVGQ (SEQ ID NO: 51)(a negative control). PGVGQ (SEQ ID NO: 51 amino acids 478-482 of AFP) is a portion of the primary structure of AFP near to the anti-cancer active site of AFP and is comprised of amino acids (P, V, and G) that are important components of AFPep.

estrogen receptor = target: T1, estrogen receptor (Homo sapiens, UniProt P03372); details: cited from earlier work
T1 sequence (P03372 1-595): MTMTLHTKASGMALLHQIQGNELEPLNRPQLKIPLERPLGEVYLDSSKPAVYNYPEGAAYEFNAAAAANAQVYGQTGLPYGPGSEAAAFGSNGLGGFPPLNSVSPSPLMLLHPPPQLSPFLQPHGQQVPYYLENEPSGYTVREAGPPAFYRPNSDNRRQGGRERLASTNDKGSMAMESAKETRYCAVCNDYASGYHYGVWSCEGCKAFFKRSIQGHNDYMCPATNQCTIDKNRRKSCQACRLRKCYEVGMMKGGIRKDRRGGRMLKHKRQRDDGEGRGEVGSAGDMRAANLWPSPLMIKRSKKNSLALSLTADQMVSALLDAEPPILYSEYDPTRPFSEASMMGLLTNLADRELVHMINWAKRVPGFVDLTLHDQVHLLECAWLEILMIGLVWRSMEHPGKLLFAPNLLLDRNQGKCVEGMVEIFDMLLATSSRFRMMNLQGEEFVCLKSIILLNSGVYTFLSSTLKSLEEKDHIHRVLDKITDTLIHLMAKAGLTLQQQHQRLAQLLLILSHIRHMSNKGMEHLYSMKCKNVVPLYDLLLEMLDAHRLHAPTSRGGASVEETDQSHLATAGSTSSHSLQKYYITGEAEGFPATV

p21Cip1 = details: cited from earlier work
[3] = system: T47D human breast cancer cells; assay: T47D cell proliferation assay in the presence of E2; assay type: cell-based
Procedure: Anticancer activity of the cyclic peptides was also evaluated using the T47D cell proliferation assay. T47D cells were cultured on collagen-IV coated 24-well plates and treated with each of above peptides in the presence of E2. Final peptide concentrations of each peptide were 10^−6 M and final E2 concentration was 1 nM. Values are reported as mean±SEM (n=6) of four independent experiments. […] One-way ANOVA followed by Tukey's multiple comparison test. p≤0.05.
as §1, §2

[4] = system: T47D human breast cancer cells; assay: as above; assay type: cell-based; details: different concentrations in vitro (FIG. 7)

CC(C)[C@@H]1NC(=O)[C@@H]2C[C@@H](O)CN2C(=O)[C@H]([C@@H](C)O)NC(=O)[C@H](CCCCN)NC(=O)[C@H](CCC(=O)O)NC(=O)[C@H](CC(N)=O)NC(=O)CNC(=O)[C@@H]2C[C@@H](O)CN2C(=O)[C@H](CC(N)=O)NC1=O [AFPep, cyclo[EKTOVNOGN], reference compound] (cyclo(EKT[Hyp]VN[Hyp]GN))
E2-induced estrogen receptor phosphorylation at serine-118 [1]: significantly inhibited | transactivation of c-erb2 leading dephosphorylated ERK1/2 (c-erb2): prevent the transactivation of c-erb2 | serine-15 phosphorylation on p53 (p53): significantly increased | antiestrogenic activity of cyclic analogs of different ring size (uterine growth inhibition) ([2]; 1 μg/mouse i.p. (FIG. 5A)): significantly better inhibition of E2-stimulated growth in vivo and in vitro than the other analogs | uterine growth inhibition dose response of AFPep combined with antagonist analog ([2]; combination of AFPep and ring and tail antagonist with disrupted pharmacophore and hydrophilic tail (FIG. 11, 12)): restored by addition of the antagonist analog; also recorded: can be overcome by using a combination of AFPep and an analog with a hydrophilic tail; also recorded: sigmoidal dose range curve | inhibition of E2-stimulated uterine growth, dose response profile ([2]; over a number of doses (FIG. 6)): significantly inhibited E2-stimulated uterine growth to a dose of 10 μg and then loses its effectiveness at higher doses | binding to the E2-binding site of the estrogen receptor (estrogen receptor): does not bind | nuclear p21Cip1 activation (p21Cip1): increases | Inhibition ± S.E, % T47D cell proliferation ([3]; peptide 1 μM, E2-stimulated, mean±S.E (n=6), * p<0.05 vs E2 alone): 51 ± 4* % | anticancer activity of cyclic analogs of different ring size (T47D proliferation inhibition) ([3]; peptide 10^−6 M, E2 1 nM (FIG. 5B)): significantly different from the other analogs; also recorded: significantly better inhibition of E2-stimulated growth in vivo and in vitro than the other analogs | inhibition of E2-stimulated T47D human breast cancer cell growth, concentration response profile [4]: inhibited E2-stimulated T47D cell growth up to a concentration of 10^−6M and then loss its effectiveness at higher concentrations
